The text below walks through data of patent publication US11066363B2, “Substituted 6,11-dihydro-5H-benzo[B]carbazoles as inhibitors of ALK and SRPK” (Dana-Farber Cancer Institute, Inc., priority 2015, dated 2021).

For series [1], the system named is EML4-ALK wt transformed Ba/F3 cells. Nature of the series: Ba/F3 single point inhibition assay (MTS). The format is cell-based. The settings on record: single dose 1 μM, 72 hours.
From the text: (§1) The MTS assay is a colorimetric method for determining the number of viable cells that is based on the bioreduction of MTS by cells to a formazan product that is soluble in cell culture medium and can be detected spectrophotometrically. […] All experimental points were set up in six wells and all experiments were repeated at least three times. […] The curves were fitted using a non-linear regression model with a sigmoidal dose response.
Series [2] relates to EML4-ALK^G1202R transformed Ba/F3 cells. Nature of the series: Ba/F3 single point inhibition assay (MTS). Type of series: cell-based. The settings on record: single dose 1 μM, 72 hours.
From the text: as §1
The target in the next series is SRPK2 (Homo sapiens (Human), UniProt P78362). Nature of the series: SRPK2 inhibitory activity. Type of series: biochemical.
Another series addresses SRPK1 (Homo sapiens (Human), UniProt Q96SB4). Nature of the series: SRPK1 inhibitory activity. Type of series: biochemical.

By IC50 is commonly meant the concentration needed to halve the response being measured. The low end stands for inhibition by little substance, the high end for a need for much substance.

Structures are written as SMILES.

Chain of SRPK1 (Q96SB4 whole entry): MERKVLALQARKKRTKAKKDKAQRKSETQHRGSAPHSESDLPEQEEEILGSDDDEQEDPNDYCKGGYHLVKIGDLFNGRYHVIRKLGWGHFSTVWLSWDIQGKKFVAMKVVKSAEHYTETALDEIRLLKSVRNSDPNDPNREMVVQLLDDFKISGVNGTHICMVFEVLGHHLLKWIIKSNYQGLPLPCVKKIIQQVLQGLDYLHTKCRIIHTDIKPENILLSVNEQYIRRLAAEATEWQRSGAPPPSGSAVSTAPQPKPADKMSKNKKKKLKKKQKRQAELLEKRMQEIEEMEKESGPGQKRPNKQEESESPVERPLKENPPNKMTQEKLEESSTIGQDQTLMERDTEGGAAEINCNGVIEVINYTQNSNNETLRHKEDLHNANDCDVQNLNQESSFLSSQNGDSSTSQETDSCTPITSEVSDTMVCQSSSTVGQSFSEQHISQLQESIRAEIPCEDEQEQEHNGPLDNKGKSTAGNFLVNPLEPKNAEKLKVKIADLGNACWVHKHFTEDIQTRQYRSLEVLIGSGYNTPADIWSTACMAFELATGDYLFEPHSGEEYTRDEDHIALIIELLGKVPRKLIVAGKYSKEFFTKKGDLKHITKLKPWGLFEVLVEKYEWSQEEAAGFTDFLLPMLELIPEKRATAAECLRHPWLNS
Chain of SRPK2 (P78362 whole entry, species assumed): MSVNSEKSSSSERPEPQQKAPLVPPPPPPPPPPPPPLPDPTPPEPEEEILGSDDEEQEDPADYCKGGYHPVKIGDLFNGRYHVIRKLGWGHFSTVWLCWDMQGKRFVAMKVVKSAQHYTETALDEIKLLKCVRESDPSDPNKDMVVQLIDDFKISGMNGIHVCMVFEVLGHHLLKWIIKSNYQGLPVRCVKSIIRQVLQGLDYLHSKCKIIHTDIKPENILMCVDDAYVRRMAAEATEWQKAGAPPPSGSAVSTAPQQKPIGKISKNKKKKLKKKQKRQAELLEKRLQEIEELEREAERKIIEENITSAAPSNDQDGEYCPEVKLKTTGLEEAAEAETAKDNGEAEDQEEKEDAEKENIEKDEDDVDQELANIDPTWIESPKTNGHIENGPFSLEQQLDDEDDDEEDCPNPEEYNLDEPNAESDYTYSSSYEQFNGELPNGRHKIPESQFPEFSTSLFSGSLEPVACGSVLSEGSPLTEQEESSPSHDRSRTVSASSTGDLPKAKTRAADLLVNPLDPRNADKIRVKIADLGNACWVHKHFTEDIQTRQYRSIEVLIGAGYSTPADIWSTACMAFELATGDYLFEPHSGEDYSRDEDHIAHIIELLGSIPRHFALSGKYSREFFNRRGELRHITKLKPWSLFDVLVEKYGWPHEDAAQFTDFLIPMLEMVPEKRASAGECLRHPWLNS

`CCc1cc2c(cc1N1CCNCC1)C(C)(C)c1[nH]c3cc(C#N)ccc3c1C2=O` [Compound 18, 9-ethyl-6,6-dimethyl-11-oxo-8-(piperazin-1-yl)-6,11-dihydro-5H-benzo[b]carbazole-3-carbonitrile]: the “Percent viability of untreated control, wt” value (shortened to “Percent viability … wt”) in series [1] is listed as 1%. Moreover, in series [2], the “Percent viability of untreated control, G1202R” value (from here on “Percent viability … G1202R”) amounted to 7%.
The corresponding values for `CCc1cc2c(cc1N(C)CCN(C)C)C(C)(C)c1[nH]c3cc(C#N)ccc3c1C2=O` [Compound 28, 8-((2 (dimethylamino)ethyl)(methyl)amino)-9-ethyl-6,6-dimethyl-11-oxo-6,11-dihydro-5H-benzo[b]carbazole-3-carbonitrile] are 2% and 7%.
Consider `CCc1cc2c(cc1/C=C/CN1CCOCC1)C(C)(C)c1[nH]c3cc(C#N)ccc3c1C2=O` [Compound 25, (E)-9-ethyl-6,6-dimethyl-8-(3-morpholinoprop-1-en-1-yl)-11-oxo-6,11-dihydro-5H-benzo[b]carbazole-3-carbonitrile], for which the “Percent viability … wt” value in series [1] amounted to 93%. Besides, the “Percent viability … G1202R” value in series [2] turned out to be 103%.
Taken in the same sequence, the figures for `CCc1cc2c(cc1-c1ccoc1)C(C)(C)c1[nH]c3cc(C#N)ccc3c1C2=O` [Compound 11, 9-ethyl-8-(furan-3-yl)-6,6-dimethyl-11-oxo-6,11-dihydro-5H-benzo[b]carbazole-3-carbonitrile] were 6% and 8%.
On to `CCc1cc2c(cc1-c1cncnc1)C(C)(C)c1[nH]c3cc(C#N)ccc3c1C2=O` [Compound 16, 9-ethyl-6,6-dimethyl-11-oxo-8-(pyrimidin-5-yl)-6,11-dihydro-5H-benzo[b]carbazole-3-carbonitrile], for which the “Percent viability … wt” value in series [1] turned out to be 3%. Further, the figures for the half-maximal inhibitory concentration (IC50) against SRPK2 and on SRPK1 were 12.5 nM and 2.53 nM, respectively. Moreover, the “Percent viability … G1202R” value in series [2] is on record as 4%.
As to `CCc1cc2c(cc1-c1ccc(O)nc1)C(C)(C)c1[nH]c3cc(C#N)ccc3c1C2=O` [Compound 26, 9-ethyl-8-(6-hydroxypyridin-3-yl)-6,6-dimethyl-11-oxo-6,11-dihydro-5H-benzo[b]carbazole-3-carbonitrile], the “Percent viability … wt” value in series [1] was 4%. In addition, the “Percent viability … G1202R” value in series [2] is given as 12%.
The corresponding values for `CCc1cc2c(cc1C#N)C(C)(C)c1[nH]c3cc(C#N)ccc3c1C2=O` [Compound 21, 9-ethyl-6,6-dimethyl-11-oxo-6,11-dihydro-5H-benzo[b]carbazole-3,8-dicarbonitrile] are 19% and 28%.
Take `CCc1cc2c(cc1-c1cnn(C(C)(C)C(=O)N(C)C)c1)C(C)(C)c1[nH]c3cc(C#N)ccc3c1C2=O` [Compound 35, 2-(4-(3-cyano-9-ethyl-6,6-dimethyl-11-oxo-6,11-dihydro-5H-benzo[b]carbazol-8-yl)-1H-pyrazol-1-yl)-N,N,2-trimethylpropanamide]: the “Percent viability … wt” value in series [1] turned out to be 0%. Further, the “Percent viability … G1202R” value in series [2] is 0%.
Take `CCc1cc2c(cc1-c1cc[nH]n1)C(C)(C)c1[nH]c3cc(C#N)ccc3c1C2=O` [Compound 9, 9-ethyl-6,6-dimethyl-11-oxo-8-(1H-pyrazol-3-yl)-6,11-dihydro-5H-benzo[b]carbazole-3-carbonitrile]: the “Percent viability … wt” value in series [1] is recorded as 1%. Further, the “Percent viability … G1202R” value in series [2] was determined as 1%. The molecule further displayed a concentration for half-maximal inhibition (IC50) against SRPK1 of 1.15 nM.
Regarding `CCc1cc2c(cc1-c1ccc(N)nc1)C(C)(C)c1[nH]c3cc(C#N)ccc3c1C2=O` [Compound 27, 8-(6-aminopyridin-3-yl)-9-ethyl-6,6-dimethyl-11-oxo-6,11-dihydro-5H-benzo[b]carbazole-3-carbonitrile], the “Percent viability … wt” value in series [1] was determined as 12%. Also, the “Percent viability … G1202R” value in series [2] came out at 42%.
The corresponding values for `CCc1cc2c(cc1-c1cccnc1)C(C)(C)c1[nH]c3cc(C#N)ccc3c1C2=O` [Compound 15, 9-ethyl-6,6-dimethyl-11-oxo-8-(pyridin-3-yl)-6,11-dihydro-5H-benzo[b]carbazole-3-carbonitrile] are 1% and 3%.
Taken in the same sequence, the figures for `CCc1cc2c(cc1N1CCOCC1)C(C)(C)c1[nH]c3cc(C#N)ccc3c1C2=O` [Compound 20, 9-ethyl-6,6-dimethyl-8-morpholino-11-oxo-6,11-dihydro-5H-benzo[b]carbazole-3-carbonitrile] were 2% and 4%.
Taken in the same sequence, the figures for `CCc1cc2c(cc1C(=O)O)C(C)(C)c1[nH]c3cc(C#N)ccc3c1C2=O` [Compound 24, 3-cyano-9-ethyl-6,6-dimethyl-11-oxo-6,11-dihydro-5H-benzo[b]carbazole-8-carboxylic acid] were 57% and 39%.
Regarding `CCc1cc2c(cc1-c1cnn(CC(=O)NC)c1)C(C)(C)c1[nH]c3cc(C#N)ccc3c1C2=O` [Compound 33, 2-(4-(3-cyano-9-ethyl-6,6-dimethyl-11-oxo-6,11-dihydro-5H-benzo[b]carbazol-8-yl)-1H-pyrazol-1-yl)-N-methylacetamide], in series [1], the “Percent viability … wt” value is listed as 0%. Moreover, the “Percent viability … G1202R” value in series [2] was 0%.
As for `CCc1cc2c(cc1-c1cccs1)C(C)(C)c1[nH]c3cc(C#N)ccc3c1C2=O` [Compound 12, 9-ethyl-6,6-dimethyl-11-oxo-8-(thiophen-2-yl)-6,11-dihydro-5H-benzo[b]carbazole-3-carbonitrile], the “Percent viability … wt” value in series [1] was 12%. Further, the “Percent viability … G1202R” value in series [2] was found to be 10%.
Regarding `CCc1cc2c(cc1[C@H](O)CO)C(C)(C)c1[nH]c3cc(C#N)ccc3c1C2=O` [Compound 23, (S)-8-(1,2-dihydroxyethyl)-9-ethyl-6,6-dimethyl-11-oxo-6,11-dihydro-5H-benzo[b]carbazole-3-carbonitrile], in series [1], the “Percent viability … wt” value is listed as 4%.
As to `CCc1cc2c(cc1-c1cn[nH]c1)C(C)(C)c1[nH]c3cc(C#N)ccc3c1C2=O` [Compound 8, 9-ethyl-6,6-dimethyl-11-oxo-8-(1H-pyrazol-4-yl)-6,11-dihydro-5H-benzo[b]carbazole-3-carbonitrile], the “Percent viability … wt” value in series [1] is listed as 0%. For the same molecule, the “Percent viability … G1202R” value in series [2] is 1%.
Consider `CCc1cc2c(cc1-c1ccncc1)C(C)(C)c1[nH]c3cc(C#N)ccc3c1C2=O` [Compound 14], for which, in series [1], the “Percent viability … wt” value was found to be 2%. Moreover, the “Percent viability … G1202R” value in series [2] is recorded as 5%. For the same molecule, it took 2.61 nM to reach half-maximal inhibition against SRPK1 (IC50).
In the case of `CCc1cc2c(cc1-c1ccc(S(=O)(=O)F)cc1)C(C)(C)c1[nH]c3cc(C#N)ccc3c1C2=O` [Compound 38, 4-(3-cyano-9-ethyl-6,6-dimethyl-11-oxo-6,11-dihydro-5H-benzo[b]carbazol-8-yl)benzenesulfonyl fluoride], the IC50 on SRPK1 is 41 nM.
`CCc1cc2c(cc1[C@@H](O)CO)C(C)(C)c1[nH]c3cc(C#N)ccc3c1C2=O` [Compound 22, (R)-8-(1,2-dihydroxyethyl)-9-ethyl-6,6-dimethyl-11-oxo-6,11-dihydro-5H-benzo[b]carbazole-3-carbonitrile]: the “Percent viability … wt” value in series [1] came to 4%. Besides, the “Percent viability … G1202R” value in series [2] is 39%.
